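1) Cells in 96-well plates. 2) Compound, 48 h, 5 concentrations. 3) Linear interpolation between surrounding doses. 4) Unreached endpoint = highest concentration. GI50 is the concentration that inhibits growth by half. TGI is the concentration that stops growth completely.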
Assays:
Assay in all cases: growth of human tumour cells (NCI), 48 h
UACC-62 melanoma = test system: UACC-62 melanoma
T-47D breast = test system: T-47D breast
NCI-H23 lung = test system: NCI-H23 lung
M14 melanoma = test system: M14 melanoma
SK-MEL-28 melanoma = test system: SK-MEL-28 melanoma
SR leukemia = test system: SR leukemia
MALME-3M melanoma = test system: MALME-3M melanoma
HS 578T breast = test system: HS 578T breast
K-562 leukemia = test system: K-562 leukemia
UO-31 renal = test system: UO-31 renal

SMILES: CC1(C)CC(=O)C(C(c2cccc(O)c2O)C2C(=O)CC(C)(C)CC2=O)C(=O)C1
- TGI (UACC-62 melanoma): > 100 µM
- TGI (T-47D breast): > 100 µM
- TGI (NCI-H23 lung): > 100 µM
- TGI (M14 melanoma): > 100 µM
- TGI (SK-MEL-28 melanoma): > 100 µM
- TGI (SR leukemia): > 100 µM
- TGI (MALME-3M melanoma): > 100 µM
- TGI (HS 578T breast): > 100 µM
- TGI (K-562 leukemia): > 100 µM

SMILES: O=C(/C=C/C=C/c1ccccc1)c1ccc(Nc2nc(Nc3ccccc3)nc(Nc3ccccc3)n2)cc1
- GI50 (UACC-62 melanoma): > 100 µM
- TGI (UACC-62 melanoma): > 100 µM
- GI50 (T-47D breast): 4.58 µM
- TGI (T-47D breast): > 100 µM
- GI50 (NCI-H23 lung): > 100 µM
- TGI (NCI-H23 lung): > 100 µM
- GI50 (M14 melanoma): 77.5 µM
- TGI (M14 melanoma): > 100 µM
- GI50 (SK-MEL-28 melanoma): 46.9 µM
- TGI (SK-MEL-28 melanoma): > 100 µM
- GI50 (SR leukemia): 9.45 µM
- TGI (SR leukemia): 92.9 µM
- GI50 (UO-31 renal): 13.3 µM
- TGI (UO-31 renal): > 100 µM
- GI50 (MALME-3M melanoma): > 100 µM
- TGI (MALME-3M melanoma): > 100 µM
- GI50 (HS 578T breast): 29 µM
- TGI (HS 578T breast): > 100 µM
- GI50 (K-562 leukemia): 7.73 µM
- TGI (K-562 leukemia): 37.2 µM

SMILES: COc1ccccc1CNCCCN1C(=O)c2ccc3c4c(ccc(c24)C1=O)C(=O)N(CCCNCCCCNCCCCN)C3=O
- GI50 (UACC-62 melanoma): 1.53 µM
- TGI (UACC-62 melanoma): 3.66 µM
- GI50 (T-47D breast): 0.782 µM
- TGI (T-47D breast): 3.14 µM
- GI50 (NCI-H23 lung): 2.43 µM
- TGI (NCI-H23 lung): 7.59 µM
- GI50 (M14 melanoma): 1.87 µM
- TGI (M14 melanoma): 4.68 µM
- GI50 (SK-MEL-28 melanoma): 2.1 µM
- TGI (SK-MEL-28 melanoma): 5.9 µM
- GI50 (SR leukemia): 1.5 µM
- TGI (SR leukemia): 17.7 µM
- GI50 (UO-31 renal): 3.44 µM
- TGI (UO-31 renal): > 67.3 µM
- GI50 (MALME-3M melanoma): 0.971 µM
- TGI (MALME-3M melanoma): 2.48 µM
- GI50 (HS 578T breast): 2.83 µM
- TGI (HS 578T breast): 14.4 µM
- GI50 (K-562 leukemia): 1.02 µM
- TGI (K-562 leukemia): > 36.9 µM

SMILES: Cn1cc(C2=C(c3c4n(c5ccccc35)CC(CN)C4)C(=O)NC2=O)c2ccccc21 (stereo not drawn)
- GI50 (UACC-62 melanoma): 3.3 µM
- TGI (UACC-62 melanoma): 6.76 µM
- GI50 (T-47D breast): 5.26 µM
- TGI (T-47D breast): 13.5 µM
- GI50 (NCI-H23 lung): 4.38 µM
- TGI (NCI-H23 lung): 11.1 µM
- GI50 (M14 melanoma): 3.3 µM
- TGI (M14 melanoma): 7.33 µM
- GI50 (SK-MEL-28 melanoma): 3.37 µM
- TGI (SK-MEL-28 melanoma): 7.01 µM
- GI50 (SR leukemia): 1.74 µM
- TGI (SR leukemia): 13.8 µM
- GI50 (UO-31 renal): 2.83 µM
- TGI (UO-31 renal): 8.27 µM
- GI50 (MALME-3M melanoma): 4.17 µM
- TGI (MALME-3M melanoma): 8.52 µM
- GI50 (HS 578T breast): 1.03 µM
- TGI (HS 578T breast): 5.6 µM
- GI50 (K-562 leukemia): 1.64 µM
- TGI (K-562 leukemia): 17.9 µM

SMILES: C(=N/Nc1ncnc2nc[nH]c12)/c1ccccn1
- GI50 (UACC-62 melanoma): 0.514 µM
- TGI (UACC-62 melanoma): 3.24 µM
- GI50 (T-47D breast): 0.308 µM
- TGI (T-47D breast): > 100 µM
- GI50 (NCI-H23 lung): 2.91 µM
- TGI (NCI-H23 lung): > 100 µM
- GI50 (M14 melanoma): 0.766 µM
- TGI (M14 melanoma): 3.63 µM
- GI50 (SK-MEL-28 melanoma): 1.2 µM
- TGI (SK-MEL-28 melanoma): > 100 µM
- GI50 (SR leukemia): 0.4 µM
- TGI (SR leukemia): > 100 µM
- GI50 (UO-31 renal): 0.265 µM
- TGI (UO-31 renal): 3.09 µM
- GI50 (MALME-3M melanoma): 0.268 µM
- TGI (MALME-3M melanoma): 5.62 µM
- GI50 (HS 578T breast): 12.7 µM
- TGI (HS 578T breast): > 100 µM
- GI50 (K-562 leukemia): 0.803 µM
- TGI (K-562 leukemia): > 100 µM

SMILES: O=C(c1ccccn1)c1nnn2ccccc12
- TGI (UACC-62 melanoma): > 100 µM
- TGI (T-47D breast): > 100 µM
- TGI (NCI-H23 lung): > 100 µM
- TGI (M14 melanoma): > 100 µM
- TGI (SK-MEL-28 melanoma): > 100 µM
- TGI (SR leukemia): > 100 µM
- TGI (MALME-3M melanoma): > 100 µM
- TGI (HS 578T breast): > 100 µM
- TGI (K-562 leukemia): > 100 µM

SMILES: O=S(=O)(O)c1ccc(Cl)cc1.[Cd]
- GI50 (UACC-62 melanoma): 13.8 µM
- TGI (UACC-62 melanoma): 28 µM
- GI50 (T-47D breast): 27 µM
- TGI (T-47D breast): 53.8 µM
- GI50 (NCI-H23 lung): 23.2 µM
- TGI (NCI-H23 lung): 82.3 µM
- GI50 (M14 melanoma): > 100 µM
- TGI (M14 melanoma): > 100 µM
- GI50 (SK-MEL-28 melanoma): > 100 µM
- TGI (SK-MEL-28 melanoma): > 100 µM
- GI50 (SR leukemia): 22.8 µM
- TGI (SR leukemia): > 100 µM
- GI50 (UO-31 renal): > 100 µM
- TGI (UO-31 renal): > 100 µM
- GI50 (HS 578T breast): 47 µM
- TGI (HS 578T breast): > 100 µM
- GI50 (K-562 leukemia): 37.5 µM
- TGI (K-562 leukemia): > 100 µM

SMILES: Cc1cc(Cl)ccc1NC(=O)/C(Cl)=C(/Cl)C(=O)O
- TGI (UACC-62 melanoma): 48.8 µM
- TGI (T-47D breast): 57.2 µM
- TGI (NCI-H23 lung): 67.8 µM
- TGI (M14 melanoma): 72.1 µM
- TGI (SK-MEL-28 melanoma): 41 µM
- TGI (SR leukemia): 36.4 µM
- TGI (UO-31 renal): > 100 µM
- TGI (HS 578T breast): 61.6 µM
- TGI (K-562 leukemia): > 100 µM

SMILES: COC(=O)NNc1c([N+](=O)[O-])cnn(-c2ccccc2)c1=O
- TGI (UACC-62 melanoma): 5.15 µM
- TGI (T-47D breast): 4.54 µM
- TGI (NCI-H23 lung): 5.82 µM
- TGI (M14 melanoma): 3.29 µM
- TGI (SK-MEL-28 melanoma): 7.05 µM
- TGI (SR leukemia): 0.981 µM
- TGI (UO-31 renal): 15.9 µM
- TGI (MALME-3M melanoma): 5.51 µM
- TGI (HS 578T breast): 6.98 µM

SMILES: COc1ccc(/C=C2\N=C(c3ccccc3)N(c3cc(C(F)(F)F)ccc3Cl)C2=O)cc1OC
- GI50 (UACC-62 melanoma): 64.3 µM
- TGI (UACC-62 melanoma): > 100 µM
- GI50 (T-47D breast): > 100 µM
- TGI (T-47D breast): > 100 µM
- GI50 (NCI-H23 lung): 90.6 µM
- TGI (NCI-H23 lung): > 100 µM
- GI50 (M14 melanoma): 28.5 µM
- TGI (M14 melanoma): 65.8 µM
- GI50 (SK-MEL-28 melanoma): 46.9 µM
- TGI (SK-MEL-28 melanoma): > 100 µM
- TGI (SR leukemia): 0.0635 µM
- GI50 (UO-31 renal): 48.4 µM
- TGI (UO-31 renal): > 100 µM
- GI50 (MALME-3M melanoma): 79.7 µM
- TGI (MALME-3M melanoma): > 100 µM
- GI50 (HS 578T breast): 24.4 µM
- TGI (HS 578T breast): 78.4 µM
- GI50 (K-562 leukemia): 31.2 µM
- TGI (K-562 leukemia): 87.6 µM

SMILES: C/C(=N\Nc1ccc2ccccc2n1)c1ccccc1O
- TGI (UACC-62 melanoma): > 100 µM
- TGI (T-47D breast): > 100 µM
- TGI (NCI-H23 lung): > 100 µM
- TGI (M14 melanoma): > 100 µM
- TGI (SK-MEL-28 melanoma): > 100 µM
- TGI (SR leukemia): 8.16 µM
- TGI (UO-31 renal): > 100 µM
- TGI (MALME-3M melanoma): > 100 µM
- TGI (HS 578T breast): > 100 µM
- TGI (K-562 leukemia): > 100 µM

SMILES: CCCn1cc(C2=C(c3cn(C)c4ccccc34)C(=O)NC2=O)c2ccccc21
- GI50 (UACC-62 melanoma): 1.63 µM
- TGI (UACC-62 melanoma): 5.94 µM
- GI50 (T-47D breast): 0.897 µM
- TGI (T-47D breast): 7.62 µM
- GI50 (NCI-H23 lung): 2.67 µM
- TGI (NCI-H23 lung): 17.8 µM
- GI50 (M14 melanoma): 1.83 µM
- TGI (M14 melanoma): > 18.2 µM
- GI50 (SK-MEL-28 melanoma): 2.09 µM
- TGI (SK-MEL-28 melanoma): 8.69 µM
- GI50 (SR leukemia): 0.352 µM
- TGI (SR leukemia): 9.99 µM
- GI50 (UO-31 renal): 1.42 µM
- TGI (UO-31 renal): 12 µM
- GI50 (MALME-3M melanoma): 3.44 µM
- TGI (MALME-3M melanoma): 9.37 µM
- GI50 (HS 578T breast): 0.766 µM
- TGI (HS 578T breast): 16 µM
- GI50 (K-562 leukemia): 0.392 µM
- TGI (K-562 leukemia): > 25 µM

SMILES: CCOCCc1c(O)nc(SC)[nH]c1=O
- GI50 (UACC-62 melanoma): > 100 µM
- TGI (UACC-62 melanoma): > 100 µM
- GI50 (T-47D breast): > 100 µM
- TGI (T-47D breast): > 100 µM
- GI50 (NCI-H23 lung): > 100 µM
- TGI (NCI-H23 lung): > 100 µM
- GI50 (M14 melanoma): > 100 µM
- TGI (M14 melanoma): > 100 µM
- GI50 (SK-MEL-28 melanoma): > 100 µM
- TGI (SK-MEL-28 melanoma): > 100 µM
- GI50 (SR leukemia): > 100 µM
- TGI (SR leukemia): > 100 µM
- GI50 (UO-31 renal): > 100 µM
- TGI (UO-31 renal): > 100 µM
- GI50 (MALME-3M melanoma): > 100 µM
- TGI (MALME-3M melanoma): > 100 µM
- GI50 (HS 578T breast): > 100 µM
- TGI (HS 578T breast): > 100 µM
- GI50 (K-562 leukemia): > 100 µM
- TGI (K-562 leukemia): > 100 µM

SMILES: O=C1Nc2ccccc2C1(c1ccc(O)c(F)c1)c1ccc(O)c(F)c1
- GI50 (UACC-62 melanoma): 10.2 µM
- TGI (UACC-62 melanoma): 33.7 µM
- GI50 (T-47D breast): 0.226 µM
- TGI (T-47D breast): 0.622 µM
- GI50 (NCI-H23 lung): 0.532 µM
- TGI (NCI-H23 lung): 25.2 µM
- GI50 (M14 melanoma): 12 µM
- TGI (M14 melanoma): 65.5 µM
- GI50 (SK-MEL-28 melanoma): 14.4 µM
- TGI (SK-MEL-28 melanoma): 52 µM
- GI50 (SR leukemia): 3.83 µM
- TGI (SR leukemia): > 52.3 µM
- GI50 (UO-31 renal): 11.9 µM
- TGI (UO-31 renal): 42.8 µM
- GI50 (MALME-3M melanoma): 13.7 µM
- TGI (MALME-3M melanoma): 46.6 µM
- GI50 (HS 578T breast): 0.3 µM
- TGI (HS 578T breast): 4.44 µM
- GI50 (K-562 leukemia): 11.6 µM
- TGI (K-562 leukemia): > 100 µM

Reference: PubChem BioAssay (NCI)
